The results in this text go back to patent US20100029657A1, “Bridged, Bicyclic Heterocyclic or Spiro Bicyclic Heterocyclic Derivatives of Pyrazolo[1, 5-A]Pyrimidines, Methods for Preparation and Uses Thereof” (Wyeth, priority 2008, published 2010).

This test has as its target T1, Flag/GST-tagged recombinant human B-Raf (Homo sapiens, UniProt P15056).
T1 construct: Flag; GST; made in house; host or cells: Sf9 insect cells (B-Raf); E. coli (MEK1-GST)
As to the kind of experiment: B-Raf kinase assay (phosphorylation of GST-MEK1, phospho-MEK1 antibody/Europium detection). In kind it is biochemical. Conditions: B-Raf IC50 Data for compounds of Formula A; read-out: Mean IC50. The procedure:
B-Raf1 Kinase Assay Procedure: B-Raf-1 is used to phosphorylate GST-MEK1.
• 1. Assay Dilution Buffer (ADB): 20 mM MOPS, pH 7.2, 25 mM β-glycerol phosphate, 5 mM EGTA, 1 mM sodium orthovanadate, 1 mM dithiothreitol, 0.01% Triton X-100. • 2. Magnesium/ATP Cocktail: ADB solution (minus Triton X-100) plus 200 μM cold ATP and 40 mM magnesium chloride. • 4. Active Kinase: Active B-Raf: Used at 0.2 nM per assay point. • 5. […] TBST—Tris (50 mM, pH 7.5), NaCl (150 mM), Tween-20 (0.05%) • 7. Anti-GST Ab (GE) • 8. Anti pMEK Ab (Upstate) • 9. Anti-rabbit Ab/Europium conjugate (Wallac).
B-Raf Assay Procedure: • 1. Added 25 μL of ADB containing B-Raf and Mek per assay (i.e. per well of a 96 well plate) • 2. Added 25 μL of 0.2 mM ATP and 40 mM magnesium chloride in Magnesuium/ATP Cocktail. • 3. Incubated for 45 minutes at RT with occasional shaking. • 4. Transferred this mixture to an anti-GST Ab coated 96 well plate (Nunc Immunosorb plates coated o/n with a-GST. Plate freshly washed 3×with TBS-T before use. • 5. Incubated o/n at […] in cold room. • 6. Washed 3× with TBST, ed Anti-Phospho MEK1 (1:1000, dilution depended upon lot) • 7. Incubated for 60 minutes at RT in a shaking incubator • 8. Washed 3× with TBST, add Anti-rabbit Ab/Europium conjugate (Wallac) (1:500, dilution depended upon lot) • 9. Incubated for 60 minutes at RT on a platform shaker. • 10. Washed plate 3× with TBS-T • 11. Added 100 μL of Wallac Delfia Enhancement Solution and agitated for 10 minutes. • 12. Read plates in Wallac Victor model Plate Reader. • 13.
The % inhibition was determined for each compound concentration.

T1 sequence (P15056 whole entry): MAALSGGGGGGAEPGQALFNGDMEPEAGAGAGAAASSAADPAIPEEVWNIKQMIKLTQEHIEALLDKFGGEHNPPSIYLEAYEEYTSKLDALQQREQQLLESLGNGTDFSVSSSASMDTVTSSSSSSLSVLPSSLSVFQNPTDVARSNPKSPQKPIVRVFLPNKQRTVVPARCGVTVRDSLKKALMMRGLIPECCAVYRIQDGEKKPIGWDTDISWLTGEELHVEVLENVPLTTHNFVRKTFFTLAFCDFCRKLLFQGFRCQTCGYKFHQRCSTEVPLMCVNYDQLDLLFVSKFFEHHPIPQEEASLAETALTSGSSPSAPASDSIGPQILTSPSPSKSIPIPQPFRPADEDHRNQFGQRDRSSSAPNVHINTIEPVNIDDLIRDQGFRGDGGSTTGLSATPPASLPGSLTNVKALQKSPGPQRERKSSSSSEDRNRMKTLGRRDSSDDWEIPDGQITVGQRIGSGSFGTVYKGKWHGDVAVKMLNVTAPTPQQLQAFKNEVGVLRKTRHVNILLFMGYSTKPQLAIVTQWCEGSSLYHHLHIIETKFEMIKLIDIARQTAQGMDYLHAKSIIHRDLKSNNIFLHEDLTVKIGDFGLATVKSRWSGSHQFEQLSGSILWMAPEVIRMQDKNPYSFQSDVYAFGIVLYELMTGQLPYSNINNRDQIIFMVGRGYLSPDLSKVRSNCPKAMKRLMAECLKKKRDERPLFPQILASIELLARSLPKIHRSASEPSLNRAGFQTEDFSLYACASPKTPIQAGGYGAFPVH

On to `c1cc(-c2c(-c3ccncc3)nn3c2nccc3[C@H]2CC[C@@H](N3C4CCC3COC4)CC2)c2cn[nH]c2c1` (relative stereo) [Example 150, 3-(1H-indazol-4-yl)-7-[cis-4-(3-oxa-8-azabicyclo[3.2.1]oct-8-yl)cyclohexyl]-2-pyridin-4-ylpyrazolo[1,5-a]pyrimidine], for which the IC50 is 39.9 nM.

Take `c1cc(-c2c(-c3ccncc3)nn3c2nccc3[C@H]2CC[C@H](N3C4CCC3COC4)CC2)c2cn[nH]c2c1` (relative stereo) [Example 151, 3-(1H-indazol-4-yl)-7-[trans-4-(3-oxa-8-azabicyclo[3.2.1]oct-8-yl)cyclohexyl]-2-pyridin-4-ylpyrazolo[1,5-a]pyrimidine]: the IC50 is 6.4 nM. On to `c1cc(-c2c(-c3ccncc3)nn3c2nccc3[C@H]2CC[C@@H](N3CC4CCC(C3)O4)CC2)c2cn[nH]c2c1` (relative stereo) [Example 152, 3-(1H-indazol-4-yl)-7-[cis-4-(8-oxa-3-azabicyclo[3.2.1]oct-3-yl)cyclohexyl]-2-pyridin-4-ylpyrazolo[1,5-a]pyrimidine], for which the IC50 was found to be 6.4 nM.

With `c1cc(-c2c(-c3ccncc3)nn3c2nccc3[C@H]2CC[C@H](N3CC4CCC(C3)O4)CC2)c2cn[nH]c2c1` (relative stereo) [Example 153, 3-(1H-indazol-4-yl)-7-[trans-4-(8-oxa-3-azabicyclo[3.2.1]oct-3-yl)cyclohexyl]-2-pyridin-4-ylpyrazolo[1,5-a]pyrimidine], the IC50 was determined as 3.7 nM. As for `Fc1ccc(-c2c(-c3ccncc3)nn3c2nccc3[C@H]2CC[C@@H](N3CC4CCC(C3)O4)CC2)c2cn[nH]c12` (relative stereo) [Example 179, 3-(7-fluoro-1H-indazol-4-yl)-7-[cis-4-(8-oxa-3-azabicyclo[3.2.1]oct-3-yl)cyclohexyl]-2-pyridin-4-ylpyrazolo[1,5-a]pyrimidine], the figure is 8.6 nM; as for `Fc1ccc(-c2c(-c3ccncc3)nn3c2nccc3[C@H]2CC[C@H](N3CC4CCC(C3)O4)CC2)c2cn[nH]c12` (relative stereo) [Example 180, 3-(7-fluoro-1H-indazol-4-yl)-7-[trans-4-(8-oxa-3-azabicyclo[3.2.1]oct-3-yl)cyclohexyl]-2-pyridin-4-ylpyrazolo[1,5-a]pyrimidine], 1.8 nM. As for `Fc1ccc(-c2c(-c3ccncc3)nn3c2nccc3[C@H]2CC[C@@H](N3C4CCC3COC4)CC2)c2cn[nH]c12` (relative stereo) [Example 181, 3-(7-fluoro-1H-indazol-4-yl)-7-[cis-4-(3-oxa-8-azabicyclo[3.2.1]oct-8-yl)cyclohexyl]-2-pyridin-4-ylpyrazolo[1,5-a]pyrimidine], the figure is 2.1 nM; as for `Fc1ccc(-c2c(-c3ccncc3)nn3c2nccc3[C@H]2CC[C@H](N3C4CCC3COC4)CC2)c2cn[nH]c12` (relative stereo) [Example 182, 3-(7-fluoro-1H-indazol-4-yl)-7-[trans-4-(3-oxa-8-azabicyclo[3.2.1]oct-8-yl)cyclohexyl]-2-pyridin-4-ylpyrazolo[1,5-a]pyrimidine], 1.3 nM. As for `Oc1cccc(-c2c(-c3ccncc3)nn3c(-c4ccc(NCC56CCN(CC5)CC6)nc4)ccnc23)c1` [Example 1, 3-(7-{6-[(1-Azabicyclo[2.2.2]oct-4-ylmethyl)amino]pyridin-3-yl}-2-pyridin-4-ylpyrazolo[1,5-a]pyrimidin-3-yl)phenol], the figure is 2 nM; as for `Oc1cccc(-c2c(-c3ccncc3)nn3c(-c4ccc(N[C@@H]5CN6CCC5CC6)nc4)ccnc23)c1` [Example 2, 3-(7-{6-[(3S)-1-Azabicyclo[2.2.2]oct-3-ylamino]pyridin-3-yl}-2-pyridin-4-ylpyrazolo[1,5-a]pyrimidin-3-yl)phenol], 2 nM; as for `Oc1cccc(-c2c(-c3ccncc3)nn3c(-c4ccc(N[C@H]5CN6CCC5CC6)nc4)ccnc23)c1` [Example 3, 3-(7-{6-[(3R)-1-Azabicyclo[2.2.2]oct-3-ylamino]pyridin-3-yl}-2-pyridin-4-ylpyrazolo[1,5-a]pyrimidin-3-yl)phenol], 1 nM. On to `COc1cc(-c2c(-c3ccncc3)nn3c(-c4ccc(NC5CN6CCC5CC6)nc4)ccnc23)ccc1Cl` [Example 5, 5-(7-{6-[(3R)-1-Azabicyclo[2.2.2]oct-3-ylamino]pyridin-3-yl}-3-(4-chloro-3-methoxyphenyl)-2-pyridin-4-ylpyrazolo[1,5-a]pyrimidine], for which the IC50 was determined as 6 nM. In the case of `Oc1cccc(-c2c(-c3ccncc3)nn3c(NCC45CCN(CC4)CC5)ccnc23)c1` [Example 6] it was 57 nM; in that of `CCOC(=O)N1C2CCC1CC(c1ccnc3c(-c4cccc(OC)c4)c(-c4ccncc4)nn13)C2` (centres unmarked) [Example 7, Ethyl 3-(3-(3-methoxyphenyl)-2-(pyridin-4-yl)pyrazolo[1,5-a]pyrimidin-7-yl)-8-azabicyclo[3.2.1]octane-8-carboxylate], 87 nM.

`CCOC(=O)N1C2CCC1CC(c1ccnc3c(-c4cccc(O)c4)c(-c4ccncc4)nn13)C2` (centres unmarked) [Example 8, Ethyl 3-(3-(3-hydroxyphenyl)-2-(pyridin-4-yl)pyrazolo[1,5-a]pyrimidin-7-yl)-8-azabicyclo[3.2.1]octane-8-carboxylate]: the half-maximal inhibitory concentration (IC50) was found to be 1 nM. As for `Oc1cccc(-c2c(-c3ccncc3)nn3c(C4CC5CCC(C4)N5)ccnc23)c1` (centres unmarked) [Example 9, 3-(7-(8-Azabicyclo[3.2.1]octan-3-yl)-2-(pyridin-4-yl)pyrazolo[1,5-a]pyrimidin-3-yl)phenol], the IC50 stood at 4 nM. As for `CCOC(=O)N1C2CCC1CC(c1ccnc3c(-c4ccc(Cl)c(OC)c4)c(-c4ccncc4)nn13)C2` (centres unmarked) [Example 10, Ethyl 3-(3-(4-chloro-3-methoxyphenyl)-2-(pyridin-4-yl)pyrazolo[1,5-a]pyrimidin-7-yl)-8-azabicyclo[3.2.1]octane-8-carboxylate], the figure is 54 nM; as for `CCOC(=O)N1C2CCC1CC(c1ccnc3c(-c4ccc(Cl)c(O)c4)c(-c4ccncc4)nn13)C2` (centres unmarked) [Example 11, Ethyl 3-(3-(4-chloro-3-hydroxyphenyl)-2-(pyridin-4-yl)pyrazolo[1,5-a]pyrimidin-7-yl)-8-azabicyclo[3.2.1]octane-8-carboxylate], 2 nM; as for `Oc1cc(-c2c(-c3ccncc3)nn3c(C4CC5CCC(C4)N5)ccnc23)ccc1Cl` (centres unmarked) [Example 12, 5-(7-(8-Azabicyclo[3.2.1]octan-3-yl)-2-(pyridin-4-yl)pyrazolo[1,5-a]pyrimidin-3-yl)-2-chlorophenol], 0.4 nM. With `CC(=O)N1C2CCC1CC(c1ccnc3c(-c4ccc(Cl)c(O)c4)c(-c4ccncc4)nn13)C2` (centres unmarked) [Example 13, 5-[7-(8-Acetyl-8-azabicyclo[3.2.1]oct-3-yl)-2-pyridin-4-ylpyrazolo[1,5-a]pyrimidin-3-yl]-2-chlorophenol], the IC50 came to 0.3 nM.

With `CS(=O)(=O)N1C2CCC1CC(c1ccnc3c(-c4ccc(Cl)c(O)c4)c(-c4ccncc4)nn13)C2` (centres unmarked) [Example 14, 2-Chloro-5-{7-[8-(methylsulfonyl)-8-azabicyclo[3.2.1]oct-3-yl]-2-pyridin-4-ylpyrazolo[1,5-a]pyrimidin-3-yl}phenol], the IC50 is 2 nM.

`CC(=O)Oc1cc(-c2c(-c3ccncc3)nn3c(C4CC5CCC(C4)N5C(C)=O)ccnc23)ccc1Cl` (centres unmarked) [Example 15, 5-[7-(8-Acetyl-8-azabicyclo[3.2.1]oct-3-yl)-2-pyridin-4-ylpyrazolo[1,5-a]pyrimidin-3-yl]-2-chlorophenyl acetate]: the IC50 amounted to 10 nM. In the case of `COc1cc(-c2c(-c3ccncc3)nn3c(C4CC5CCC(C4)N5)ccnc23)ccc1Cl` (centres unmarked) [Example 16, 7-(8-Azabicyclo[3.2.1]oct-3-yl)-3-(4-chloro-3-methoxyphenyl)-2-pyridin-4-ylpyrazolo[1,5-a]pyrimidine] it was 9 nM. For `CCN1C2CCC1CC(c1ccnc3c(-c4ccc(Cl)c(OC)c4)c(-c4ccncc4)nn13)C2` (centres unmarked) [Example 17, 3-(4-Chloro-3-methoxyphenyl)-7-(8-ethyl-8-azabicyclo[3.2.1]oct-3-yl)-2-pyridin-4-ylpyrazolo[1,5-a]pyrimidine], the IC50 worked out at 44 nM. With `CCN1C2CCC1CC(c1ccnc3c(-c4ccc(Cl)c(O)c4)c(-c4ccncc4)nn13)C2` (centres unmarked) [Example 18, 2-Chloro-5-[7-(8-ethyl-8-azabicyclo[3.2.1]oct-3-yl)-2-pyridin-4-ylpyrazolo[1,5-a]pyrimidin-3-yl]phenol], the IC50 turned out to be 0.6 nM. As for `COc1cccc(-c2c(-c3ccncc3)nn3c(C4CC5CCC(C4)N5)ccnc23)c1` (centres unmarked) [Example 19, 7-(8-Azabicyclo[3.2.1]oct-3-yl)-3-(3-methoxyphenyl)-2-pyridin-4-ylpyrazolo[1,5-a]pyrimidine], the IC50 amounted to 71 nM.
